Test results: PubChem BioAssay AID330 (DTP/NCI, 2004)
Several values for one entry are separate records, joined by “and”; a condition that tells them apart may be missing. Identical values can stand only once. Toxic doses and inconclusive results are not listed.

System: P388 leukemia ip, CD2F1 mice, survival T/C
Experiment: NCI In Vivo Anticancer Drug Screen. Data for tumor model P388 Leukemia (intraperitoneal) in CD2F1 (CDF1) mice
Conditions: endpoint: median survival time, higher = longer survival
Method in brief: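 Mice carrying the transplanted tumor received test compound or vehicle. Survival was recorded in each group, and the value is the treated-group measurement divided by that of the vehicle-treated control group.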

[1] = dose: 60.0 mg/kg/injection, schedule: Q01DX005 (ip), vehicle: Klucel (hydroxypropylcellulose) (HPC)
[2] = dose: 120.0 mg/kg/injection, schedule: Q01DX005 (ip), vehicle: Klucel (hydroxypropylcellulose) (HPC)
[3] = dose: 240.0 mg/kg/injection, schedule: Q01DX005 (ip), vehicle: Klucel (hydroxypropylcellulose) (HPC)
[4] = dose: 25.0 mg/kg/injection, schedule: Q01DX009 (ip), vehicle: other
[5] = dose: 50.0 mg/kg/injection, schedule: Q01DX005 (ip), vehicle: saline with Tween-80
[6] = dose: 100.0 mg/kg/injection, schedule: Q01DX005 (ip), vehicle: saline with Tween-80
[7] = dose: 200.0 mg/kg/injection, schedule: Q01DX005 (ip), vehicle: saline with Tween-80
[8] = dose: 50.0 mg/kg/injection, schedule: Q01DX009 (ip), vehicle: saline
[9] = dose: 60.0 mg/kg/injection, schedule: Q01DX005 (ip), vehicle: saline with Tween-80
[10] = dose: 120.0 mg/kg/injection, schedule: Q01DX005 (ip), vehicle: saline with Tween-80
[11] = dose: 240.0 mg/kg/injection, schedule: Q01DX005 (ip), vehicle: saline with Tween-80
[12] = dose: 12.5 mg/kg/injection, schedule: Q01DX009 (ip), vehicle: saline with Tween-80
[13] = dose: 25.0 mg/kg/injection, schedule: Q01DX009 (ip), vehicle: saline with Tween-80
[14] = dose: 50.0 mg/kg/injection, schedule: Q01DX009 (ip), vehicle: saline with Tween-80

CCOC(=O)Nc1cc(NC/C(=N\O)c2ccc3ccccc3c2)c([N+](=O)[O-])c(N)n1
T/C [1]: 100 % of control | T/C [2]: 100 % of control | T/C [3]: 96 % of control

COC(=O)C(Cc1cn(C(O)(NC(=O)OCc2ccccc2)C(F)(F)F)cn1)NC(=O)C(NC(=O)C(CC(C)C)NC(=O)C(CSC(c1ccccc1)(c1ccccc1)c1ccccc1)NC(=O)OCc1ccccc1)C(C)C (stereo not drawn)
T/C [1]: 91 % of control | T/C [2]: 110 % of control | T/C [3]: 96 % of control

COc1ccc2ccc(CO)cc2c1OC
T/C [4]: 98 % of control | T/C (dose: 50.0 mg/kg/injection, schedule: Q01DX009 (ip), vehicle: other): 92 % of control | T/C (dose: 100.0 mg/kg/injection, schedule: Q01DX009 (ip), vehicle: other): 90 % of control | T/C (dose: 200.0 mg/kg/injection, schedule: Q01DX009 (ip), vehicle: other): 99 % of control | T/C (dose: 400.0 mg/kg/injection, schedule: Q01DX009 (ip), vehicle: other): 90 % of control

ON(C(=S)c1ccccc1)c1ccccc1
T/C [5]: 105 % of control | T/C [6]: 102 % of control | T/C [7]: 102 % of control

CC([OH2+])CNCCN.CC([OH2+])CNCCN.O=[N+]([O-])[O-].[Cu+2] (stereo not drawn)
T/C [8]: 113 % of control

CC1(C)SC(=O)N(CCC#CCCc2ccccc2)C1=O
T/C [1]: 102 % of control | T/C [2]: 100 % of control | T/C [3]: 92 % of control

COc1ccc(CN2CCCN(Cc3ccc(OC)cc3)P2(=O)Nc2ccc(OC)cc2)cc1
T/C [5]: 97 % of control | T/C [6]: 100 % of control | T/C [7]: 100 % of control

COc1cccc(/C=N/NC(=O)CNC(=O)Nc2cccc([N+](=O)[O-])c2)c1OC
T/C [9]: 90 % of control | T/C [10]: 89 % of control and 96 % of control | T/C [11]: 99 % of control and 100 % of control

CC(=O)C[n+]1ccccc1Sc1ccc(Cl)cc1
T/C [5]: 111 % of control | T/C [6]: 111 % of control

O=C1COC(c2ccccc2O)=NN1CCCN1CCCC1
T/C (dose: 12.5 mg/kg/injection, schedule: Q01DX001 (ip), vehicle: saline): 100 % of control | T/C (dose: 25.0 mg/kg/injection, schedule: Q01DX001 (ip), vehicle: saline): 100 % of control | T/C (dose: 50.0 mg/kg/injection, schedule: Q01DX001 (ip), vehicle: saline): 107 % of control | T/C (dose: 100.0 mg/kg/injection, schedule: Q01DX001 (ip), vehicle: saline): 103 % of control

CCOc1ccc(NC(=O)OCCN2CCN(CCc3ccccc3)C(C)C2)cc1 (stereo not drawn)
T/C [12]: 97 % of control | T/C [13]: 94 % of control | T/C [14]: 100 % of control

O=C1CCC2CCCCC2C1 (stereo not drawn)
T/C (dose: 50.0 mg/kg/injection, schedule: Q01DX009 (ip), vehicle: Klucel (hydroxypropylcellulose) (HPC)): 97 % of control | T/C (dose: 100.0 mg/kg/injection, schedule: Q01DX009 (ip), vehicle: Klucel (hydroxypropylcellulose) (HPC)): 104 % of control | T/C (dose: 200.0 mg/kg/injection, schedule: Q01DX009 (ip), vehicle: Klucel (hydroxypropylcellulose) (HPC)): 88 % of control

CC(=Nc1ccccc1)Nc1ccccc1.[Cu+2]
T/C [12]: 109 % of control | T/C [13]: 105 % of control | T/C [14]: 105 % of control

Cc1nnc(-n2nc(-c3ccc(Cl)cc3)cc2N)[nH]c1=O
T/C [5]: 98 % of control | T/C [6]: 106 % of control | T/C [7]: 93 % of control

Cc1cc(NCCCCNCCCNc2cc(C)nc3cc(N)ccc23)c2ccc(N)cc2n1
T/C (dose: 12.5 mg/kg/injection, schedule: Q01DX009 (ip), vehicle: other): 150 % of control | T/C [4]: 175 % of control

O=C1OC(Nc2ccccc2)C(Cl)=C1Cl (stereo not drawn)
T/C [9]: 102 % of control | T/C [10]: 104 % of control | T/C [11]: 103 % of control

Cc1cc(O)c(-c2c(-c3ccccc3C(=O)O)oc3cc(C)c(C)cc23)cc1C
T/C [8]: 89 % of control | T/C (dose: 100.0 mg/kg/injection, schedule: Q01DX009 (ip), vehicle: saline): 89 % of control | T/C (dose: 200.0 mg/kg/injection, schedule: Q01DX009 (ip), vehicle: saline): 90 % of control

CC(Cl)C(=O)NN=C(c1ccccc1)c1ccccc1 (stereo not drawn)
T/C (dose: 42.0 mg/kg/injection, schedule: Q01DX009 (ip), vehicle: saline): 94 % of control | T/C (dose: 84.0 mg/kg/injection, schedule: Q01DX009 (ip), vehicle: saline): 90 % of control | T/C (dose: 168.0 mg/kg/injection, schedule: Q01DX009 (ip), vehicle: saline): 105 % of control
